Patent US4076931A, “Derivatives of an antibiotic XK-62-2 and the process for the production thereof” (Abbott Laboratories, priority 1974, dated 1978)
Values after ≈ are worked out from the molar mass of the structure shown. Where two headings read alike, the source gives them in different places.

How the values were obtained:
Type in all cases: cell-based
[1] = tested on: Salmonella typhosa ATCC 9922; assay: Minimum inhibitory concentration by agar dilution method, Salmonella typhosa ATCC 9922; details: for MIC: Salmonella enterica, read-out: Minimum Inhibitory Concentration
Excerpt: (§1) Table 1 illustrates minimum inhibitory concentration of 1-N-(α-hydroxy-δ-aminovaleryl)XK-62-2 and 1-N-(α-hydroxy-ε- aminocaproyl)XK-62-2 against various Gram-negative and Gram-positive bacteria determined by agar dilution method.

[2] = tested on: Staphylococcus aureus ATCC 6538P; assay: Minimum inhibitory concentration by agar dilution method, Staphylococcus aureus ATCC 6538P; details: for MIC: ATCC6538P
Excerpt: as §1

Escherichia coli KY 8348 = assay: Minimum inhibitory concentration by agar dilution method, Escherichia coli KY 8348; details: for antibacterial activity: Escherichia coli KY 8348, resistant to known aminoglycoside antibiotics, in words; for MIC: KY8348
Excerpt: as §1
(§2) In the above Table 1, Escherichia coli KY 8327 and KY 8348 respectively produce adenyltransferase and acetyltransferase intracellularly; the former enzyme inactivates kanamycins and gentamicins by adenylation, and the latter inactivates gentamicins by acetylation.

[3] = tested on: Escherichia coli strains having R factors; assay: Antibacterial activity against Escherichia coli strains having R factors; details: resistant to known aminoglycoside antibiotics, in words
Excerpt: as §1

Escherichia coli KY 8327 = assay: Minimum inhibitory concentration by agar dilution method, Escherichia coli KY 8327; details: for antibacterial activity: Escherichia coli KY 8327, resistant to kanamycins and gentamicins, in words; for MIC: KY8327
Excerpt: as §1, §2

Escherichia coli ATCC 26 = assay: Minimum inhibitory concentration by agar dilution method, Escherichia coli ATCC 26
Excerpt: as §1

[4] = tested on: Bacillus subtilis No. 10707; assay: Minimum inhibitory concentration by agar dilution method, Bacillus subtilis No. 10707
Excerpt: as §1

[5] = tested on: Shigella sonnel ATCC 9290; assay: Minimum inhibitory concentration by agar dilution method, Shigella sonnel ATCC 9290; details: for MIC: Shigella, ATCC9290, read-out: Minimum Inhibitory Concentration
Excerpt: as §1

[6] = tested on: Klebsiella penumoniae ATCC 10031; assay: Minimum inhibitory concentration by agar dilution method, Klebsiella penumoniae ATCC 10031; details: for MIC: ATCC10031
Excerpt: as §1

[7] = tested on: Pseudomonas aeruginosa BMH No. 1; assay: Minimum inhibitory concentration by agar dilution method, Pseudomonas aeruginosa BMH No. 1; details: for MIC: BMHNO.1
Excerpt: as §1

[8] = tested on: Proteus vulgaris ATCC 6897; assay: Minimum inhibitory concentration by agar dilution method, Proteus vulgaris ATCC 6897
Excerpt: as §1

[9] = Escherichia coli KY 8348 (produces acetyltransferase), agar dilution method
[10] = Escherichia coli KY 8327 (produces adenyltransferase), agar dilution method

Compound	MIC [1] [µg/mL]	MIC [2] [µg/mL]	antibacterial activity (Escherichia coli KY 8348)	MIC (Escherichia coli KY 8348; [9]) [µg/mL]	antibacterial activity [3]	antibacterial activity (Escherichia coli KY 8327)	MIC (Escherichia coli KY 8327; [10]) [µg/mL]	MIC [4] [µg/mL]	MIC [5] [µg/mL]	MIC [6] [µg/mL]	MIC [7] [µg/mL]	other results
CNC[C@@H]1CC[C@@H](N)[C@@H](O[C@H]2[C@H](O)[C@@H](O[C@H]3OC[C@](C)(O)[C@H](NC)[C@H]3O)[C@H](NC(=O)[C@@H](O)CCCN)C[C@@H]2N)O1 [1-N-[L-(-)-α-hydroxy-δ-aminovaleryl]XK-62-2]	0.016 (≈ 0.0276 µM)	0.008 (≈ 0.0138 µM)	very strong antibacterial activity	0.033 (≈ 0.057 µM)	strong antibacterial activity	very strong antibacterial activity	0.065 (≈ 0.112 µM)	< 0.004	0.065 (≈ 0.112 µM)	0.008 (≈ 0.0138 µM)	0.52 (≈ 0.899 µM)	MIC (Escherichia coli ATCC 26; ATCC26, Escherichia coli ATCC 26, agar dilution method, read-out: Minimum Inhibitory Concentration): 0.033 µg/mL (≈ 0.057 µM); MIC ([8]; ATCC6897, Proteus vulgaris ATCC 6897, agar dilution method, read-out: Minimum Inhibitory Concentration): 0.065 µg/mL (≈ 0.112 µM)
1-N-[L-(-)-α-hydroxy-ε-aminocaproyl]XK-62-2	–	–	very strong antibacterial activity	–	strong antibacterial activity	very strong antibacterial activity	–	–	–	–	–	Minimum Inhibitory Concentration ([1]; Salmonella typhosa ATCC 9922, agar dilution method): 0.065 µg/mL; Minimum Inhibitory Concentration [2]: 0.033 µg/mL; Minimum Inhibitory Concentration (Escherichia coli KY 8348; [9]): 0.065 µg/mL; Minimum Inhibitory Concentration (Escherichia coli KY 8327; [10]): 0.013 µg/mL; Minimum Inhibitory Concentration (Escherichia coli ATCC 26; Escherichia coli ATCC 26, agar dilution method): 0.13 µg/mL; Minimum Inhibitory Concentration [4]: 0.008 µg/mL; Minimum Inhibitory Concentration ([5]; Shigella sonnel ATCC 9290, agar dilution method): 0.26 µg/mL; Minimum Inhibitory Concentration [6]: 0.033 µg/mL; Minimum Inhibitory Concentration [7]: 4.17 µg/mL; Minimum Inhibitory Concentration ([8]; Proteus vulgaris ATCC 6897, agar dilution method): 0.26 µg/mL
CNC[C@@H]1CC[C@@H](N)[C@@H](O[C@H]2[C@H](O)[C@@H](O[C@H]3OC[C@](C)(O)[C@H](NC)[C@H]3O)[C@H](N)C[C@@H]2N)O1 [XK-62-2]	0.008 (≈ 0.0173 µM)	< 0.004	–	1.04 (≈ 2.24 µM)	–	–	1.04 (≈ 2.24 µM)	< 0.004	0.033 (≈ 0.0712 µM)	< 0.004	0.13 (≈ 0.28 µM)	MIC (Escherichia coli ATCC 26; Escherichia coli, ATCC26, read-out: Minimum Inhibitory Concentration): 0.016 µg/mL (≈ 0.0345 µM); MIC ([8]; Proteus vulgaris, ATCC6897, read-out: Minimum Inhibitory Concentration): 0.016 µg/mL (≈ 0.0345 µM)
